Results as given in US20120046251A1, “INHIBITORS OF SOLUBLE EPOXIDE HYDROLASE TO INHIBIT OR PREVENT NIACIN-INDUCED FLUSHING” (The Regents of the University of California, priority 2009, published 2012).

Assays:
sEH [1] = target: T1, sEH (Homo sapiens, UniProt P34913); experiment: sEH inhibition, assay not specified; assay type: biochemical
T1 sequence (P34913 1-555): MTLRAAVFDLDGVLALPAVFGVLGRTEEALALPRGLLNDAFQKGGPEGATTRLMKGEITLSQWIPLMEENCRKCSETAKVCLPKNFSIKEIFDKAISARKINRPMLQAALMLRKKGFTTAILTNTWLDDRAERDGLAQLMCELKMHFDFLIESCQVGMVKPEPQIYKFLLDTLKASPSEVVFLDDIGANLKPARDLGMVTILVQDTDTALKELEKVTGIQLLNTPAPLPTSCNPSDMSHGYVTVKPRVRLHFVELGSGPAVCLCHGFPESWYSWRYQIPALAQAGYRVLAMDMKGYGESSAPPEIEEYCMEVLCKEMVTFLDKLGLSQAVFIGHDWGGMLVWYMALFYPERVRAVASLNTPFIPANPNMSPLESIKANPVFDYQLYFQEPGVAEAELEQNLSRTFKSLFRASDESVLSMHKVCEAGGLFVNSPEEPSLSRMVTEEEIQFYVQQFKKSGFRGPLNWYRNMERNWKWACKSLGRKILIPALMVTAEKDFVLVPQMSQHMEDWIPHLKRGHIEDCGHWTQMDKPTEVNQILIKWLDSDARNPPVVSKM
Description: (§1) (Both the 1- and the 2-adamantyl ureas have been tested and have about the same high activity as an inhibitor of sEH.) Thus, isomers of adamantyl dodecyl urea are preferred inhibitors. It is further expected that N,N′-dodecyl-cyclohexyl urea (DCU), and other inhibitors of sEH, and particularly dodecanoic acid ester derivatives of urea, are suitable for use in the methods of the invention.

[2] = Metabolic stability, method not given; assay type: in vitro ADME
Description: as §1

C57BL/6 mice [3] = experiment: Niacin-induced flushing: laser Doppler ear blood flow in anesthetized mice; assay type: in vivo, mouse; details: for peak ear tissue perfusion after niacin (composite, FIG. 9): i.p. 30 minutes before niacin 30 mg/kg, TPAU 0.01-1 mg/kg, others 4 mg/kg
Experimental: For the experiments, mice were anesthetized using Nembutal (50 mg/kg) given by intraperitoneal (I.P.) injection. […]
Laser Doppler ear blood flow: The change in ear flow was measured using a laser doppler flowmeter (BLF 21, on loan from Transonic Systems, Inc., Ithaca, N.Y.). […] The laser doppler probe was fitted with a sleeve of 2 mm length plastic tubing and attached to a micromanipulator to standardize the depth of the tissue being measured. Blood flow was measured at 30 second intervals before and during exposure to compounds. Baseline blood flow was established by the average of measurements over 5 min prior to injection of drug or vehicle. Data were analyzed as a fraction of baseline.
Mice were anesthetized with Nembutal™ (50 mg/kg) and ear cutaneous perfusion was measured as explained above. Animals were then injected with a niacin solution (30 mg/kg, in physiological saline) and response (% tissue perfusion) after 3 minutes measured.

C57BL/6 mice [4] = experiment: PGD2-induced vasodilation/flushing, ear perfusion in mice; assay type: in vivo, mouse
Experimental: Mouse Model: C57BL/6 mice were obtained from Charles River Laboratories (location). sEHi knockout mice were generated at UC Davis using the C57BL/6 background [EnayetAllah, et al., J Biol. Chem. (2008) 283(52):36592-8]. For the experiments, mice were anesthetized using Nembutal (50 mg/kg) given by intraperitoneal (I.P.) injection. […]
Laser Doppler ear blood flow: The change in ear flow was measured using a laser doppler flowmeter (BLF 21, on loan from Transonic Systems, Inc., Ithaca, N.Y.). As described by Cheng et al [Proc Natl Acad Sci (2006) 103(17):6682-7] the flow probe was placed against the ventral aspect of the right ear of the anesthetized mouse. The laser doppler probe was fitted with a sleeve of 2 mm length plastic tubing and attached to a micromanipulator to standardize the depth of the tissue being measured. Blood flow was measured at 30 second intervals before and during exposure to compounds. Baseline blood flow was established by the average of measurements over 5 min prior to injection of drug or vehicle. Data were analyzed as a fraction of baseline.

C57BL/6 mice [5] = experiment: Eicosanoid analysis by LC-MS/MS in plasma/serum of mice given niacin +/- sEHi; assay type: in vivo, mouse
C57BL/6 mice [6] = experiment: Eicosanoid analysis by LC-MS in ear tissue of mice given niacin +/- sEHi; assay type: in vivo, mouse; details: for products of the 5-lipoxygenase pathway in ear tissue: niacin 30 mg/kg subcutaneously, TPAU 3 mg/kg pre-treatment, FIG. 10
Experimental: Samples were spiked with a suite of odd chain length analogs (surrogates) then solvent extracted and partially purified by passing through a solid phase (SP) extraction column using Oasis HLB cartridges. The loaded column was washed with 2 mL 2.5 mM H2PO4+10% methanol and dried under vacuum. Target analytes were eluted with 2 mL of ethyl acetate. The collected extracts were evaporated to dryness under nitrogen, re-dissolved in a final volume of 100 μL with methanol containing deuterated isomers of internal standards including prostaglandins, thromboxanes, epoxides, diols, of arachidonic acid, which allows accurate surrogate recovery calculations and stored at −20° C. until analysis. A 10-20 μL aliquot of each sample was separated by reversed phase HPLC chromatography on a 150 mm×2 mm I.D. 5 μm particle size C18 column using a gradient of water-0.1% acetic acid and 89:11 acetonitrile/methanol (v/v)-0.1% acetic acid. […] The system was calibrated with a minimum of five calibration solutions containing analytical targets at concentrations ranging from 1 to 1000 nM. The analysis of each sample was repeated three times. Calibration check solutions were analyzed at a minimum frequency of 10 hours to ensure stability of the analytical calibration throughout a given analysis.
As the flushing effect of niacin is essentially local rather than systemic, the effect of niacin +/−sEHi on ear tissue prostaglandins were also examined by LC-MS.
Products of the 5-lipoxygenase pathway are generally considered pro-inflammatory.

COX-2 / COX-1 = details: cited from earlier work
[7] = 325 mg of aspirin, Dunn et al 1995; cited from earlier work
recombinant murine sEH = target: T2, recombinant murine sEH (Mus musculus, UniProt P34914); experiment: Inhibition of recombinant murine sEH; assay type: biochemical
T2 sequence (P34914 1-554): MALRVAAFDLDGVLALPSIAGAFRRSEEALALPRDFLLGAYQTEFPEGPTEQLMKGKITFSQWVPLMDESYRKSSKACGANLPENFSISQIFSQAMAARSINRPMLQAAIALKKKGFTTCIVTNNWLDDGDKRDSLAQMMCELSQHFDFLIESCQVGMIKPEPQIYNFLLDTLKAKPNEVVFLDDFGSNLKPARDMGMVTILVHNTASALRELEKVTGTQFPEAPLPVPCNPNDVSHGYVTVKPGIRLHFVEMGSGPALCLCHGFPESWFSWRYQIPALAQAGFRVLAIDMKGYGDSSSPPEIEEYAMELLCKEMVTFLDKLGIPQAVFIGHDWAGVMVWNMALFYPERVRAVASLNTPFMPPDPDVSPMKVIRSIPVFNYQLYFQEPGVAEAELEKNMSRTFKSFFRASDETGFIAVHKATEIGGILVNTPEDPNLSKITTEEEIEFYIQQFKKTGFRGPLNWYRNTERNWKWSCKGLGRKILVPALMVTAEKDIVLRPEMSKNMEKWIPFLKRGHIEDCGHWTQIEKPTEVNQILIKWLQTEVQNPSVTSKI

sEH [8] = target: T1, sEH; experiment: Inhibition of recombinant human sEH; assay type: biochemical
mouse ear = experiment: Capsaicin applied to the mouse ear: tissue perfusion; assay type: in vivo
Description: Tachyphylaxis to the flushing effect of niacin is well known, although the mechanism has not been elucidated. […] Tachyphylaxis to the vasodilatory effect of capsaicin is likely mediated by repetitive activation of transient receptor potential channels, in particular TRPV1, with resultant desensitization and internalization. See, Fan et al., J Biol Chem (2009) 284:27884-91; Myers, et al., Neuron (2007) 54:847-50. […] Subsequently, mice were exposed to capsaicin daily for 3 days (treated topically, 4 times per day), resulting in abolition of the acute vasodilatory response (i.e. tachyphylaxis to capsaicin). […] Although the exact sequence of events following niacin exposure is not clear it seems that niacin activates a number of targets simultaneously.

[9] = niacin 30 mg/kg, wild type mice, FIG. 6

## CCCCCCCCCCCCNC(=O)NC12CC3CC(CC(C3)C1)C2 [ADU, N-Adamantyl-N′-dodecyl urea]
sEH [1]
  activity on sEH: particularly high activity on sEH
[2]
  metabolic stability: metabolically stable

## CC(C)(C)c1ccc(/C=C/C(=O)Nc2ccc3c(c2)OCCO3)cc1 [AMG9810]
C57BL/6 mice [3]; AMG9810 10 mg/kg IP, in the animal tested
  flushing response to niacin: abolished the flushing response to niacin
C57BL/6 mice [4]; AMG9810 10 mg/kg IP, FIG. 12
  flushing response to PGD2: blunted the biologic response to PGD2

## O=C(NC1CCN(C(=O)C(F)(F)F)CC1)NC12CC3CC(CC(C3)C1)C2 [TPAU, N-(1-(2,2,2-trifluoroethanoyl)piperidin-4-yl)-N′-(adamant-1-yl)urea]
C57BL/6 mice [3]; TPAU 0.05 mg/kg to 1 mg/kg, FIG. 8
  peak perfusion after niacin: significant reduction in peak perfusion
C57BL/6 mice [3]; TPAU 0.01 to 1 mg/kg, 1 hour prior to niacin 30 mg/kg, n=4-6
  flushing (% tissue perfusion 3 minutes after niacin): dose-dependently reduced flushing
C57BL/6 mice [3]
  peak ear tissue perfusion after niacin (composite, FIG. 9): significantly reduced peak ear tissue perfusion
C57BL/6 mice [3]; mice, niacin 30 mg/kg
  dose giving total inhibition of flushing: 0.3 mg/kg
C57BL/6 mice [3]; mice, niacin 30 mg/kg, TPAU pre-treatment
  Ki50 for inhibition of niacin-induced flushing: approximately 0.01 mg/kg
C57BL/6 mice [4]; TPAU pretreatment at a concentration sufficient to inhibit niacin-induced perfusion increase, FIG. 4
  PGD2-induced increase in perfusion: did not limit the increase in perfusion with administration of PGD2
C57BL/6 mice [5]; TPAU 3 mg/kg, FIG. 5
  PGD2 levels with niacin + sEHi: did not result in the expected reduction in PGD2
C57BL/6 mice [5]; sEHi TPAU 3 mg/kg, niacin 30 mg/kg, FIG. 1-3
  niacin-induced reduction of plasma EETs and ratio EETs/DHETs: counters this reduction in EETs
C57BL/6 mice [6]
  products of the 5-lipoxygenase pathway in ear tissue: limited or abrogated niacin-induced increases in products of the 5-lipoxygenase pathway

## CC(=O)Oc1ccccc1C(=O)O [aspirin]
C57BL/6 mice [3]
  peak ear tissue perfusion after niacin (composite, FIG. 9): significantly reduced peak ear tissue perfusion
COX-2 / COX-1
  COX-2 (IC50)/COX-1 (IC50) ratio: 0.32
[7]
  effectiveness against niacin flushing: more effective than 165 mg of aspirin or 200 mg ibuprofen

## COc1cc(CNC(=O)CCCC/C=C/C(C)C)ccc1O [capsaicin]
C57BL/6 mice [3]; capsaicin topically 4 times per day for 3 days, FIG. 11
  vasodilatory response to niacin after capsaicin tachyphylaxis: blunted vasodilatory response
C57BL/6 mice [3]; repeated capsaicin then acute topical capsaicin prior to niacin injection
  flushing response to niacin after capsaicin tachyphylaxis plus acute topical capsaicin: abolished
Recombinant murine sEH
  IC50: 1500 nM
sEH [8]
  IC50: 1500 nM
Mouse ear
  ear tissue perfusion after topical capsaicin: time-dependent increase in tissue perfusion

## COc1ccc2c(c1)c(CC(=O)O)c(C)n2C(=O)c1ccc(Cl)cc1 [indomethacin]
COX-2 / COX-1
  COX-2 (IC50)/COX-1 (IC50) ratio: 33

## O=C(O)c1cccnc1 [niacin, pyridine-3-carboxylic acid]
C57BL/6 mice [3]; [9]
  increase in ear perfusion: ~400%
  time of peak ear perfusion after injection: approximately 4 minutes
C57BL/6 mice [5]; niacin 30 mg/kg subcutaneous alone
  plasma levels of EETs (total EETs or ratio EETs/DHETs): reduced plasma levels of EETs
C57BL/6 mice [5]; niacin alone
  PGE2 levels in serum: without altering PGE2 levels
  increase of PGD2 levels in serum: approximately 100%
C57BL/6 mice [6]; LC-MS, unit not given
  ear tissue PGD2 level: 33214
C57BL/6 mice [6]
  products of the 5-lipoxygenase pathway in ear tissue: increased products of the 5-lipoxygenase pathway
C57BL/6 mice [6]; niacin vs control, P=0.09
  increase of ear tissue PGD2: 21%

## CNC(=O)c1cc(Oc2ccc(NC(=O)Nc3ccc(Cl)c(C(F)(F)F)c3)cc2)ccn1 [sorafenib]
C57BL/6 mice [3]
  peak ear tissue perfusion after niacin (composite, FIG. 9): significantly reduced peak ear tissue perfusion
